From PubChem BioAssay (NCI) come the findings set out here.

Test systems include COLO 205 colon; HCT-116 colon; HOP-92 NSCLC; KM12 colon; NCI-H460 lung; OVCAR-3 ovarian; OVCAR-5 ovarian; SF-295 CNS; SF-539 CNS; TK-10 renal.
Common to all, as to experiment: NCI tumour cell line growth inhibition, 48 h

The structures appear in SMILES notation.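 Five concentrations, 48 hours, 96-well plates. GI50 marks 50% less growth. TGI: concentration producing complete growth inhibition.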

With `Cc1nc2ccccc2c(=O)n1CC(=O)O`, the TGI in the test on COLO 205 colon, with HCT-116 colon, in the test with HOP-92 NSCLC, in the test on KM12 colon, in the test with NCI-H460 lung and in the test with OVCAR-3 ovarian was more than 100 µM in each case. The TGI in the test with OVCAR-5 ovarian, with SF-295 CNS and with SF-539 CNS was more than 100 µM throughout.

Take `CC[C@@H](C(=O)[C@@H](C)[C@@H](O)[C@H](C)CCc1ccc(C)c(O)c1C(=O)O)[C@H]1O[C@](CC)([C@H]2CC[C@](O)(CC)[C@H](C)O2)C[C@@H]1C`: the TGI in the test on COLO 205 colon is 4.76 µM; with HCT-116 colon, 9.65 µM; with HOP-92 NSCLC it was 8.96 µM; in the test on KM12 colon, 9.57 µM; in the test with NCI-H460 lung, 9.47 µM; with OVCAR-3 ovarian it was 10.9 µM. For the same compound, the TGI in the test with OVCAR-5 ovarian was 19.3 µM; in the test with SF-295 CNS it was 6.91 µM; with SF-539 CNS, 5.46 µM; with TK-10 renal, 12.6 µM.

For the compound `Cc1ccc(/C(=C/C=C(C#N)C#N)Sc2cc(Cl)ccc2Cl)cc1`, the TGI with COLO 205 colon was 20.4 µM; in the test on HCT-116 colon it was 5.06 µM; in the test with KM12 colon, 28 µM; in the test on NCI-H460 lung, more than 100 µM; with OVCAR-3 ovarian, 11.8 µM; with OVCAR-5 ovarian, 19.4 µM. Moreover, the results for the TGI in the test with SF-295 CNS, in the test on SF-539 CNS and in the test on TK-10 renal were 16 µM, 12.4 µM and 18.7 µM, respectively.

With `O=C(Nc1ccc(Cl)cc1)/C(Cc1cccc[n+]1[O-])=N\Nc1ccc([N+](=O)[O-])cc1[N+](=O)[O-]`, the TGI in the test on COLO 205 colon, with HCT-116 colon, in the test with HOP-92 NSCLC, in the test with KM12 colon, in the test on NCI-H460 lung and in the test with OVCAR-3 ovarian was more than 100 µM each time. In addition, the TGI in the test with OVCAR-5 ovarian, in the test with SF-295 CNS, in the test with SF-539 CNS and in the test with TK-10 renal was more than 100 µM in each case.

For `CC1(C)CCc2cc3c(-c4ccccc4)cc(=O)oc3cc2O1`, the TGI in the test on COLO 205 colon is more than 100 µM; with HOP-92 NSCLC, 72.3 µM; in the test with NCI-H460 lung, more than 100 µM; with OVCAR-3 ovarian, more than 100 µM; in the test on SF-295 CNS it was more than 100 µM; with SF-539 CNS, more than 100 µM. In the test on TK-10 renal, this compound registered a TGI of more than 100 µM.

Regarding `O=C1Nc2ccccc2Nc2nc3cccccc-3c21`, the TGI in the test with COLO 205 colon, in the test on HCT-116 colon, with HOP-92 NSCLC, in the test with KM12 colon, in the test on NCI-H460 lung and in the test on OVCAR-3 ovarian was more than 100 µM in each case. In addition, the TGI in the test on OVCAR-5 ovarian, in the test on SF-295 CNS, with SF-539 CNS and with TK-10 renal was more than 100 µM each time.

As for `CCOc1ccc2c(ccc(/C=C\c3cc(C)c4cccnc4c3O)[n+]2C)c1`, the TGI with COLO 205 colon came to 5.82 µM; in the test on HCT-116 colon, 25 µM; with HOP-92 NSCLC, 3.36 µM; in the test with KM12 colon, 22.7 µM; in the test on NCI-H460 lung, 10.2 µM; with OVCAR-3 ovarian, 2 µM. The TGI in the test on OVCAR-5 ovarian was found to be 16.7 µM; with SF-295 CNS it was 20.7 µM; with SF-539 CNS it was 10.9 µM; in the test on TK-10 renal, 6 µM.

In the case of `c1ccc2c(c1)nc1n2CSC1`, the TGI in the test with COLO 205 colon, in the test on HOP-92 NSCLC, in the test with NCI-H460 lung, with OVCAR-3 ovarian, in the test on SF-295 CNS and in the test with SF-539 CNS was more than 100 µM each time. The compound further yielded a TGI in the test on TK-10 renal of more than 100 µM.

For `O=C(O)c1cc(=O)[nH]c(=S)[nH]1`, the TGI with COLO 205 colon, in the test on HCT-116 colon, with HOP-92 NSCLC, with KM12 colon, in the test with NCI-H460 lung and with OVCAR-3 ovarian was more than 100 µM each time. The TGI in the test with OVCAR-5 ovarian, in the test with SF-295 CNS and with TK-10 renal was more than 100 µM in each case.

For the compound `CN1C2C=C(c3ccccc3)CC1CC2` (configuration not stated), the TGI with COLO 205 colon, in the test on HCT-116 colon, in the test with HOP-92 NSCLC, in the test on KM12 colon, in the test on NCI-H460 lung and in the test on OVCAR-3 ovarian was more than 100 µM each time. Further, the TGI in the test on OVCAR-5 ovarian, with SF-295 CNS, in the test on SF-539 CNS and in the test with TK-10 renal was more than 100 µM each time.

`Cc1ccc(S(=O)(=O)Oc2cc(S(=O)(=O)O)cc3cc(S(=O)(=O)O)cc(N)c23)cc1`: the TGI in the test on COLO 205 colon, with HCT-116 colon, in the test with HOP-92 NSCLC, in the test on KM12 colon, in the test with NCI-H460 lung and in the test with OVCAR-3 ovarian was more than 100 µM each time. In addition, the TGI in the test with OVCAR-5 ovarian, in the test with SF-295 CNS, in the test with SF-539 CNS and in the test with TK-10 renal was more than 100 µM each time.

Take `CN1CCN(Cc2ccc(NC(=O)c3ccc(C#N)c(C#Cc4cnc(N)c5ncccc45)c3)cc2C(F)(F)F)CC1`: the GI50 in the test on COLO 205 colon was 4.02 µM; in the test with HOP-92 NSCLC, 12.2 µM; in the test with OVCAR-3 ovarian it was 3.34 µM; in the test on OVCAR-5 ovarian, 1.71 µM; in the test on SF-295 CNS it was 22.1 µM; with SF-539 CNS, 1.52 µM. Moreover, the TGI is more than 100 µM in the test on COLO 205 colon; 58.1 µM with HOP-92 NSCLC; 10.4 µM in the test with OVCAR-3 ovarian; 3.34 µM in the test on OVCAR-5 ovarian; 78.3 µM in the test with SF-295 CNS; 3.06 µM in the test on SF-539 CNS.

Turning to `[C-]#[O+].[Cl][Sn]([Cl])[Cl].[Cl][Sn]([Cl])[Cl].[Pt].c1ccncc1`, the TGI in the test with COLO 205 colon, in the test with HCT-116 colon, with HOP-92 NSCLC, in the test with KM12 colon, in the test with NCI-H460 lung and in the test on OVCAR-3 ovarian was more than 100 µM in each case. Further, the TGI in the test with OVCAR-5 ovarian, in the test with SF-295 CNS and in the test with SF-539 CNS was more than 100 µM each time.

As for `CC(=O)[O-].CC(=O)[O-].[NH2-].[Pt+2].c1ccncc1`, the TGI in the test with COLO 205 colon, in the test on HCT-116 colon, in the test with HOP-92 NSCLC, with KM12 colon, with NCI-H460 lung and with OVCAR-3 ovarian was more than 100 µM each time. Also, the TGI was more than 100 µM with OVCAR-5 ovarian, more than 100 µM with SF-295 CNS, 55.1 µM in the test on SF-539 CNS and more than 100 µM with TK-10 renal.

As for `Cc1cccc2c(N)c3cccc(C(=O)NCCN(C)C)c3nc12`, the TGI in the test on COLO 205 colon was found to be 0.229 µM; with HCT-116 colon, 2.38 µM; in the test on HOP-92 NSCLC it was 2.94 µM; with KM12 colon, 0.856 µM; in the test with NCI-H460 lung, 0.0262 µM; with OVCAR-3 ovarian, 0.929 µM. For the same compound, the TGI was 0.723 µM in the test on OVCAR-5 ovarian, 0.615 µM with SF-295 CNS and more than 30 µM with TK-10 renal.

`CC(C)=CC(=O)OC1C2C(C)C(=O)OC2C(O)C(C)C2C=CC(=O)C21C` (configuration not stated): the TGI in the test with COLO 205 colon is 5.83 µM; in the test with HCT-116 colon, 4.69 µM; in the test on HOP-92 NSCLC, 8.85 µM; in the test with KM12 colon it was 9.31 µM; with NCI-H460 lung, 6.33 µM; in the test on OVCAR-3 ovarian, 6.92 µM. Moreover, the TGI in the test with OVCAR-5 ovarian was found to be 12.9 µM; in the test on SF-295 CNS, 13.4 µM; in the test on SF-539 CNS, 9.5 µM.

Take `CC(C)=CCc1c(C)cc2cc3c(c(O)c2c1O)C(O)=CC(=O)C3(CC=C(C)C)C/C=C(\C)CO` (configuration not stated): the TGI in the test with COLO 205 colon was 80.1 µM; in the test with HCT-116 colon, 72.3 µM; in the test with HOP-92 NSCLC it was 75.6 µM; in the test with KM12 colon it was 81.7 µM; with NCI-H460 lung it was 98.9 µM; with OVCAR-3 ovarian it was 76.3 µM. In addition, the TGI turned out to be 84.6 µM with OVCAR-5 ovarian, 87.9 µM in the test with SF-295 CNS and 76.2 µM in the test with SF-539 CNS.

Take `CCOP(=O)(OCC)C(Cc1ccc(OC)c(OC)c1)N=C(c1ccccc1)c1ccccc1` (configuration not stated): the TGI was 38.1 µM with COLO 205 colon; more than 100 µM in the test with HCT-116 colon; more than 100 µM with HOP-92 NSCLC; more than 100 µM in the test with KM12 colon; more than 100 µM with NCI-H460 lung; more than 100 µM in the test with OVCAR-3 ovarian. The TGI with OVCAR-5 ovarian, in the test on SF-295 CNS, in the test on SF-539 CNS and with TK-10 renal was more than 100 µM throughout.

For the compound `CCOc1ccc(/C=C/[N+](=O)[O-])cc1`, the GI50 in the test with COLO 205 colon was 4.71 µM; in the test on HCT-116 colon, 1.93 µM; in the test on HOP-92 NSCLC it was 12.9 µM; in the test with KM12 colon, 4.51 µM; with NCI-H460 lung, 26.8 µM; in the test with OVCAR-3 ovarian, 4.53 µM. The GI50 was 6.31 µM in the test with OVCAR-5 ovarian, 19.2 µM in the test on SF-295 CNS, 2.35 µM with SF-539 CNS and 12 µM in the test with TK-10 renal. Further, the TGI in the test with COLO 205 colon was 15.5 µM; with HCT-116 colon, 3.55 µM; in the test with HOP-92 NSCLC, 28.1 µM; in the test on KM12 colon it was 15.4 µM; in the test on NCI-H460 lung it was more than 100 µM; with OVCAR-3 ovarian, 15.8 µM. Besides, the TGI with OVCAR-5 ovarian was found to be 19.8 µM; with SF-295 CNS, 41.8 µM; in the test on SF-539 CNS, 6.4 µM; with TK-10 renal it was 24.7 µM.

On to `O=C(Nc1nc2ccc([N+](=O)[O-])cc2[n+]([O-])n1)C(F)(F)F`, for which the TGI in the test with COLO 205 colon is more than 100 µM; in the test on HCT-116 colon, 60.1 µM; with HOP-92 NSCLC it was more than 100 µM; in the test with KM12 colon, more than 100 µM; in the test with NCI-H460 lung it was more than 100 µM; with OVCAR-5 ovarian it was more than 100 µM. In addition, the TGI in the test with SF-295 CNS, in the test on SF-539 CNS and in the test on TK-10 renal was more than 100 µM in each case.

For the compound `CC1=C[C@]2(CC(C)C3C(CC4(C)C5CCC6C(C)(C)C(=O)CC[C@@]67C[C@@]57CC[C@]34C)O2)OC1=O` (some centres not stated), the TGI in the test on COLO 205 colon was more than 100 µM; in the test on HCT-116 colon, more than 100 µM; with HOP-92 NSCLC, 45.7 µM; in the test on KM12 colon, more than 100 µM; in the test on NCI-H460 lung it was more than 100 µM; in the test with OVCAR-5 ovarian, more than 100 µM. In addition, the TGI was found to be 89.5 µM in the test with SF-295 CNS, 42.5 µM in the test on SF-539 CNS and 79 µM in the test with TK-10 renal.
